Laboratory results as given in ChEMBL document CHEMBL1130583, “Benzylamine-based selective and orally bioavailable inhibitors of thrombin” (Bioorg Med Chem Lett, 1998).

Key:
Serine protease 1 = target: T1, Serine protease 1 (Bos taurus, UniProt P00760); assay: Binding affinity towards bovine trypsin was evaluated in vitro
T1 sequence (P00760 whole entry): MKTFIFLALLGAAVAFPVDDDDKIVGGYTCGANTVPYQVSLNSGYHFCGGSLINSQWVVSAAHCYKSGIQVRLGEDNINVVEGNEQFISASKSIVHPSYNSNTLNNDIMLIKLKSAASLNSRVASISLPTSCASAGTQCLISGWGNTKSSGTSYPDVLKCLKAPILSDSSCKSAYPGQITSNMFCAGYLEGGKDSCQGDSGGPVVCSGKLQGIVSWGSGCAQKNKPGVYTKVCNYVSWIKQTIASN

Rattus norvegicus = assay: In vivo antithrombotic activity was tested in rat thromboplastin-induced model of venous thrombosis at an intravenous bolus of 5 mg/Kg; type: functional
Prothrombin = Prothrombin (Homo sapiens, UniProt P00734); assay: Binding affinity towards human thrombin
[1] = Apparent permeability coefficient (Papp) was determined in human Caco-2 cell monolayer (n = 3); type: ADME, cell-based
[2] = Time taken by the compound to achieve maximum concentration in rat plasma at 30 mg/Kg upon oral administration.; type: ADME, organism-based
[3] = Maximum concentration in rat plasma at 30 mg/Kg upon oral administration.; type: ADME, organism-based; set-up: dose 30 mg/Kg, route oral

| SMILES | Ki (Serine protease 1) [nM] | inhibition in vivo at 5 mg/kg (Rattus norvegicus) [%] | Ki (Prothrombin) [nM] | Papp [1] [×10⁻⁶ cm/s] | Tmax [2] [h] | Cmax [3] [µM] |
| --- | --- | --- | --- | --- | --- | --- |
| CN(C(=O)[C@H](Cc1ccc(CN)cc1)NS(=O)(=O)c1ccc2ccccc2c1)C1CCCC1 | 13600 | 17.6 | 18.3 |  |  |  |
| CN(C(=O)[C@H](Cc1ccc(C(=N)NN)cc1)NS(=O)(=O)c1ccc2ccccc2c1)C1CCCC1 |  |  |  | 1.7 |  |  |
| CN(C(=O)[C@H](Cc1ccc(CN)cc1)NS(=O)(=O)c1ccc2c(c1)CCCC2)C1CCCC1 | 9800 | 16.4 | 10.1 |  |  |  |
| COc1ccc2cc(S(=O)(=O)N[C@@H](Cc3ccc(CN)cc3)C(=O)N(C)C3CCCC3)ccc2c1 | 14200 | 44.1 | 6.6 | 10.7 | 2.33 | 2.8 |
| CN(C(=O)[C@H](Cc1ccc(CN)cc1)NS(=O)(=O)c1ccc(-c2ccccc2)cc1)C1CCCC1 |  |  | 60.5 |  |  |  |
| NCc1ccc(C[C@H](NS(=O)(=O)c2ccc3ccccc3c2)C(=O)N2CCCCC2)cc1 |  |  | 3.1 |  |  |  |
| CN(C(=O)[C@H](Cc1ccc(CN)cc1)NS(=O)(=O)c1ccc2c(c1)CCCCC2)C1CCCC1 | 6300 | 39.4 | 3.3 |  | 1.33 | 3.5 |
| CN(C(=O)[C@H](Cc1ccc(CN)cc1)NS(=O)(=O)c1ccc(-c2ccccn2)s1)C1CCCC1 |  |  | 107 |  |  |  |
| CN(C(=O)[C@H](Cc1ccc(C(=N)N)cc1)NS(=O)(=O)c1ccc2ccccc2c1)C1CCCC1 |  |  |  | 0.2 |  |  |
| CCCc1ccc(S(=O)(=O)N[C@@H](Cc2ccc(CN)cc2)C(=O)N(C)C2CCCC2)cc1 | 9040 |  | 9.6 |  |  |  |
| CN(C)c1cccc2c(S(=O)(=O)N[C@@H](Cc3ccc(CN)cc3)C(=O)N(C)C3CCCC3)cccc12 | 17100 | 35.5 | 10.9 |  | 1.6 | 3.3 |
| CN(C(=O)[C@H](Cc1ccc(CN)cc1)NS(=O)(=O)c1ccc(C2CCCCC2)cc1)C1CCCC1 | 4800 | 23.8 | 20.1 |  |  |  |
| CN(C(=O)[C@H](Cc1ccc(CN)cc1)NS(=O)(=O)c1ccc2cc3ccccc3cc2c1)C1CCCC1 | 3300 | 45.4 | 5.7 |  |  |  |
